Here are results for six molecules from BindingDB's records for doi:10.7270/Q2D798W4 (Burnham Center For Chemical Genomics, 2010).

The target of the assay is T1, Alkaline phosphatase, tissue-nonspecific isozyme (Homo sapiens, UniProt P05186).
T1 sequence (P05186 whole entry): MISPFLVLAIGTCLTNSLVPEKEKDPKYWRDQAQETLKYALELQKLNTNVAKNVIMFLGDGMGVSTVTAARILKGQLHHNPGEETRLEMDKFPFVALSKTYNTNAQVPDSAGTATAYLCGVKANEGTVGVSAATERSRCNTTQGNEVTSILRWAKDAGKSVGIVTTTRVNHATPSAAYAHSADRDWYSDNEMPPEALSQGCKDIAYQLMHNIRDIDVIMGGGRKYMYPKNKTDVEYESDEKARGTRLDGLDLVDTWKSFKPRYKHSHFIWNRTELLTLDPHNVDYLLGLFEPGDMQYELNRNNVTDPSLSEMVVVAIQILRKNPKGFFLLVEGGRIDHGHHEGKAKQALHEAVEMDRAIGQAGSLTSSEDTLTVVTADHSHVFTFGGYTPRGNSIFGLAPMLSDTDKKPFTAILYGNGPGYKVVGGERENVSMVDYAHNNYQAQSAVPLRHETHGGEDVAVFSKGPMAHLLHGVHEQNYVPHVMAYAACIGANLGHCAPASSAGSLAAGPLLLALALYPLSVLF
The experiment in a line: inhibition of tissue-nonspecific alkaline phosphatase – biochemical, dose response (AID 488882).
The IC50 is the point on the concentration scale where inhibition reaches its midpoint. Read a low IC50 as higher potency. `Cc1c(C(=O)NN=Cc2ccc(O)cc2O)[nH][nH]c1=O` gave a half-inhibitory concentration (IC50) of 7.32 µM.

`CC(N=Nc1ccccc1[N+](=O)[O-])c1ccc([N+](=O)[O-])cc1` (stereo unspecified): the 50% inhibitory concentration (IC50) is greater than 100 µM.

In turn, `CCOC1=CC(=Cc2c(C)[nH]oc2=O)C=C(Br)C1=O` [4-[(Z)-(3-bromo-5-ethoxy-4-oxo-1-cyclohexa-2,5-dienylidene)methyl]-3-methyl-2H-isoxazol-5-one] came in with an IC50 of 38.1 µM.

The molecule `C=c1[nH]n(Cc2ccccc2)c(=O)c1=Cc1ccc(N(C)C)cc1` [(4Z)-4-[[4-(dimethylamino)phenyl]methylidene]-5-methyl-2-(phenylmethyl)-3-pyrazolone] returned an IC50 of 46.7 µM.

`O=C(Nn1c(O)csc1=S)C(=O)Nn1c(O)csc1=S` [SMR000349781] returned an IC50 of 12.8 µM.

`O=C(O)[C@H]1O[C@@H](Oc2c(-c3ccc(O)c(O)c3)oc3cc(O)cc(=O)c-3c2O)[C@H](O)[C@@H](O)[C@@H]1O` [quercetin glucuronide] showed a half-maximal inhibitory concentration (IC50) greater than 100 µM.
